{"source": "paper PMC7614683", "about": "“A small molecule PI3Kα activator for cardioprotection and neuroregeneration” (Nature, 2023)", "key": {"[1]": {"target": "T1, TGFBR1 (ALK5) (Homo sapiens, UniProt P36897)", "T1 sequence (P36897 34-503)": "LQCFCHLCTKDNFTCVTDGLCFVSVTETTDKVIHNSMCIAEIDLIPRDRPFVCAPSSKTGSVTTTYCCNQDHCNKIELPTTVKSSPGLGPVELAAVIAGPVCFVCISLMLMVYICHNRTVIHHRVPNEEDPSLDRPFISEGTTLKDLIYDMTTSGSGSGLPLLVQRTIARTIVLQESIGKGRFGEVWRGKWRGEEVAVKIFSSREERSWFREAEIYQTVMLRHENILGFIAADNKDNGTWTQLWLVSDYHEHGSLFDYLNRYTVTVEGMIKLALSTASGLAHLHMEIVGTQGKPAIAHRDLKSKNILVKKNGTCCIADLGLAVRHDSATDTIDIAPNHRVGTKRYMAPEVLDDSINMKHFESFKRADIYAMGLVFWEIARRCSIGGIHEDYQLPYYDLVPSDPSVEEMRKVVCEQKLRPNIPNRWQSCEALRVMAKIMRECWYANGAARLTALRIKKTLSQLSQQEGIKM", "assay": "SelectScreen LanthaScreen Binding", "conditions": "1000 nM", "method": "(§1) 133 protein kinases and 7 lipid kinases were counterscreened, with 1938 used at 1 μM, using the Adapta, Lantha and Z-LYTE assays (SelectScreen Kinase Profiling Service; Thermofisher – experimental details of these assays can be found here: https://www.thermofisher.com/uk/en/home/industrial/pharma-biopharma/drug-discovery-development/target-and-lead-identification-and-validation/kinasebiology/kinase-activity-assays.html. The tree represention in KinMap[59] generated courtesy of Cell Signaling Technology, Inc. (www.cellsignal.com). mTORC1 (mTOR/RAPTOR/LST8) protein complex and ATM kinase and substrates were produced as previously described[57],[60]. Screening of 1938 was conducted using SuperSep Phos-Tag 50 μmol/l 100 x 100 x 6.6 mm 17-well (192-18001/199-18011) gels. For ATM assays, 100 nM ATM was incubated for 30 min at 30°C with 5 μM GST-p53 and 1 mM ATP, in the absence or presence of 200 μM 1938 in ATM Kinase Buffer (50 mM HEPES pH 7.5, 100 mM NaCl, 10% glycerol, 2 mM […], 5 mM MgCl2). As a positive control for ATM activation, the same reaction was carried out with 100 nM ATM/5 μM GST-p53/1 mM ATP in the presence of 100 nM Mre11-Rad50-Nbs1 (MRN) complex, a known activator of ATM[61]. For mTORC1 assays, 50 nM mTORC1 complex (mTOR/LST8/RAPTOR) was incubated for 3 h at 30°C with 15 μM 4E-BP1, 10 mM MgCl2 and 250 μM ATP, in the absence or presence of 200 μM 1938. As a ‘positive’ control, a higher concentration (150 nM) of mTORC1 complex (mTOR/LST8/RAPTOR) was incubated for 3 h at 30°C with 15 μM 4E-BP1, 10 mM MgCl2 and 250 μM ATP. Kinase reactions were quenched by addition of SDS-PAGE Loading Buffer (as per manufacturer’s instructions) and freezing at -20°C before being run on the Phos-tag gels at 150 V for 90 min. Gels were then stained using InstantBlue™ Coomassie, and quantified using BioRad Image Lab Software. Kinase assays were carried out in triplicate."}, "[2]": {"target": "T2, ULK2 (Homo sapiens, UniProt Q8IYT8)", "T2 sequence (Q8IYT8 1-1036)": "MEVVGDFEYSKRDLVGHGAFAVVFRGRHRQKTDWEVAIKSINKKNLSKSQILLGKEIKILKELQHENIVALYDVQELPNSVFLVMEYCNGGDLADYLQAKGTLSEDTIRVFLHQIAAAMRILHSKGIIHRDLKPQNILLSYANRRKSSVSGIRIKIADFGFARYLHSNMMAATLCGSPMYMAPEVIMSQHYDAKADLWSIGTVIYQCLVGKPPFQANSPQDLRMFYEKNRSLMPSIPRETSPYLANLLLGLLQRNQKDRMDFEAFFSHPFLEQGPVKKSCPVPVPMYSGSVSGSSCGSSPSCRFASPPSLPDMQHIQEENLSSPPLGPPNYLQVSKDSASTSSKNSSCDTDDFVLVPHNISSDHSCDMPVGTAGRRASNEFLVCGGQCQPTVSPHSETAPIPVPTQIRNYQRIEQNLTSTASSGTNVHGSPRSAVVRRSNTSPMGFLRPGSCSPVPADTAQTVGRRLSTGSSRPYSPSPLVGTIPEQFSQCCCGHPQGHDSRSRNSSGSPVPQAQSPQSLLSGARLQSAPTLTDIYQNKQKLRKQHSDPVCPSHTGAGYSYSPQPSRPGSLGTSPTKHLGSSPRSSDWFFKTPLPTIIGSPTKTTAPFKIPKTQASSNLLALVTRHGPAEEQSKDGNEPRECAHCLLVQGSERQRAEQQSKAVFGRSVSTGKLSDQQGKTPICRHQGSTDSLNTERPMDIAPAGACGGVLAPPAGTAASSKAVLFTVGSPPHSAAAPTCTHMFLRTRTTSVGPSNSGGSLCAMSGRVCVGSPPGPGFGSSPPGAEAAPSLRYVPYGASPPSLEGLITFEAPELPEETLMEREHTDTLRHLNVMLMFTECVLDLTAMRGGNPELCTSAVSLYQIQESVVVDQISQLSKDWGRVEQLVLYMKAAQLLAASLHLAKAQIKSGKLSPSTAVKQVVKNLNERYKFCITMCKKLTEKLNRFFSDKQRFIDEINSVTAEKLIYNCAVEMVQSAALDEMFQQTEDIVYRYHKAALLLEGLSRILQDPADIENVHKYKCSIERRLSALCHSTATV", "assay": "SelectScreen LanthaScreen Binding", "conditions": "1000 nM", "method": "as §1"}}}
{"smiles": "CCN1CCN(c2ccc(Nc3cc(Nc4cccc5c4N(C(C)=O)CC5)ccn3)cc2)CC1", "note": "[Compound 1938]", "values": [{"measurement": "% Displacement Point 1", "setting": "[1]", "result": 19, "unit": "%"}, {"measurement": "% Displacement Point 2", "setting": "[1]", "result": 22, "unit": "%"}, {"measurement": "% Displacement mean", "setting": "[1]", "result": 21, "unit": "%"}, {"measurement": "% Displacement Point 1", "setting": "[2]", "result": 3, "unit": "%"}, {"measurement": "% Displacement Point 2", "setting": "[2]", "result": -0.488, "unit": "%"}, {"measurement": "% Displacement mean", "setting": "[2]", "result": 1.23, "unit": "%"}]}
